{"source": "patent US5312816A", "about": "“Method of combatting osteoporosis in mammalian subjects, utilizing organic boron compounds” (priority 1993, dated 1994)", "key": {"[1]": {"target": "Aryl sulphatase", "assay": "Mouse macrophage aryl sulphatase activity", "format": "cell-based", "details": "Table XVII; mouse macrophage, 60 min incubation; read-out: Aryl Sulphatase IC50"}, "[2]": {"target": "Prostaglandin cyclooxygenase", "assay": "Mouse macrophage prostaglandin cyclooxygenase activity", "format": "cell-based", "details": "Table XVIII; mouse macrophage, 60 min incubation; read-out: Prostaglandin Cyclooxygenase IC50", "text": "(§1) 3. Mouse macrophages J774A.1 BALB/c\nProstaglandin synthetase purified beef seminal vesicle ^3 H arachidonic acid (86.2 Ci/mmol), tlc separation."}, "[3]": {"target": "T1, Cathepsin D (Mus musculus, UniProt P18242)", "T1 construct": "azocasein assay pH 5.0", "T1 sequence (P18242 65-410)": "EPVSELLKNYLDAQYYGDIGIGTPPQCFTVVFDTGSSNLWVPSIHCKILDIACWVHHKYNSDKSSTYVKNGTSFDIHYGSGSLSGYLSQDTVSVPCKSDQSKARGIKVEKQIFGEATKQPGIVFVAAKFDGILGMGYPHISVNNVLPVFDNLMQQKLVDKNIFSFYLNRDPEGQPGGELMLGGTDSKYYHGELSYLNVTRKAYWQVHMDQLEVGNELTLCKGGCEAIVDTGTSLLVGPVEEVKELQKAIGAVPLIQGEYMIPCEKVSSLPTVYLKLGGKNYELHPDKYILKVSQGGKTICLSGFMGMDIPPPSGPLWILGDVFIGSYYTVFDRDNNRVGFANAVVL", "assay": "Mouse hepatic lysosomal cathepsin D activity", "format": "biochemical", "text": "(§2) 1. Cf1 male mouse hepatic 10% homogenates in 0.25M sucrose+0.001MEDTA,pH 7.2.\n(§3) Lysosomal Enzymes - free and total [triton X-100].\n(§4) 2. Acid Cathepsin D -azocasein-pH 5.0, hydrolytic azo-peptide produce 366 nm.\nCathepsin azo casein activity -"}, "[4]": {"system": "Cf1 male mice", "assay": "Hot plate tail flick test", "format": "in vivo", "details": "Table XIV; unit not given"}, "[5]": {"target": "Aryl sulphatase", "assay": "Mouse hepatic lysosomal aryl sulphatase activity", "format": "biochemical", "details": "Table XV, 60 min incubation", "text": "as §2, §3\n3. Aryl sulphatase- p-nitrocatechol sulfate, pH\n5. 8 p-nitro-catechol product 510 nm."}, "[6]": {"system": "Trypsin", "assay": "Mouse macrophage trypsin (BAEE) activity", "format": "cell-based", "details": "Table XVIII; mouse macrophage, 60 min incubation; read-out: Trypsin BAEE IC50"}, "[7]": {"system": "Cf1 male mice", "assay": "Anti-inflammatory screen, Winter's test, 2% carrageenan hind foot", "format": "in vivo", "details": "Table XIV; unit inferred; unit assumed", "method": "Anti-inflammatory Screen- Cf1 - male mice-Winter's Test 2% carrageenan S.C. plantar surface of hind foot, drugs administered @8 or 10 mg/kg I.P. 2X\nWinter, C.A., et al, Proc. Soc."}, "[8]": {"target": "Elastase", "assay": "Mouse macrophage elastase activity", "format": "cell-based", "details": "Table XVIII; mouse macrophage, 60 min incubation; read-out: Elastase IC50", "excerpt": "Elastase- N-succinyl-L-alanyl-L-alanine-p-nitroanilide, pH 8.0, p-nitro anilide 410 nm."}, "[9]": {"target": "T2, Pg. cyclooxygenase (Sus scrofa, UniProt A0A287ANF9)", "T2 construct": "Porcine Seminal; from tissue; the methods section prints beef seminal vesicle", "T2 sequence (A0A287ANF9 25-600)": "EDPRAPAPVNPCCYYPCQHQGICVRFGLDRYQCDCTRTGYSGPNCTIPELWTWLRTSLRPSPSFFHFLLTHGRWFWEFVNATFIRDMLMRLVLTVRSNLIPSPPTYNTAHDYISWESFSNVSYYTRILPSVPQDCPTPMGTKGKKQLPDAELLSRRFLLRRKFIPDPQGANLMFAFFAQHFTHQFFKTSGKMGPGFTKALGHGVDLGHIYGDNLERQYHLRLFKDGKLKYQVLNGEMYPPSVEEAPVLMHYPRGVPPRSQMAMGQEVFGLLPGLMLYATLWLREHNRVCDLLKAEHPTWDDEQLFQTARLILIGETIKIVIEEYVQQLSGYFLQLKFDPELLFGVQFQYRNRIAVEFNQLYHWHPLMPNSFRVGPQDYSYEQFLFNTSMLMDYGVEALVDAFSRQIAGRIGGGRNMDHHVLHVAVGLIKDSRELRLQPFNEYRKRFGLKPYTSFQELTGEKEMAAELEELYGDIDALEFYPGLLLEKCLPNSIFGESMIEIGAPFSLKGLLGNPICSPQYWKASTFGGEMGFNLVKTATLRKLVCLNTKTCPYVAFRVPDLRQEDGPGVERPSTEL", "assay": "Porcine seminal vesicles Pg. cyclooxygenase", "format": "biochemical", "details": "Table XVI; 60 min incubation"}, "[10]": {"system": "Cf1 male mice", "assay": "Writhing reflex, 0.6% acetic acid", "format": "in vivo", "details": "Table XIV; unit inferred; unit assumed", "method": "Writhing reflex- Cf1 -male mice- 0.6% acetic acid I.P. drugs administered @20 mg/kg/ I.P. 20 min. later - the # of stretches/10 min.\nHendershot, L.C., et al, J."}, "[11]": {"target": "Acid phosphatase", "assay": "Mouse macrophage acid phosphatase activity", "format": "cell-based", "details": "Table XVII; mouse macrophage, 60 min incubation; read-out: Acid Phosphatase IC50"}, "[12]": {"system": "Trypsin", "assay": "Mouse hepatic trypsin activity", "format": "biochemical", "details": "Table XVI; 60 min incubation; read-out: Mouse Hepatic Trypsin IC50", "text": "as §2\n1. Trypsin- N-benzoyl-L-arginine ethyl ester pH 8.0, hydrolytic product 253 nm."}, "[13]": {"target": "Acid phosphatase", "assay": "Mouse hepatic lysosomal acid phosphatase activity", "format": "biochemical", "details": "Table XV; mouse hepatic, 60 min incubation", "text": "as §2, §3\n1. Acid phosphatase -beta glycerol-3-phosphate, pH 5.0, released IP 720 nm.\nAcid phosphatase activity -"}, "[14]": {"target": "Commercial Collagenase", "assay": "Commercial collagenase (type not stated)", "format": "biochemical", "details": "Table XVI; 60 min incubation", "text": "3. Collagenase I, Clostridium histolyticum, bone, skin, tendon, blood vessel, dentine, GI. substrate: rat collagen, N-[propionate-2-3-^3 H] propionylated measured as dpm released.\n4. Collagenase II, Clostridium histolyticum, cartilage collagen."}, "[15]": {"target": "T1, Cathepsin D", "assay": "Mouse macrophage cathepsin D activity", "format": "cell-based", "details": "Table XVII; mouse macrophage, 60 min incubation; read-out: Cathepsin D pH 5.0 IC50", "text": "as §1, §4"}, "[16]": {"system": "Hydroxyproline", "assay": "Serum and urine hydroxyproline levels in vivo", "details": "Cf1 male mice, 8 mg/kg/day I.P. 14 days, N=6"}, "[17]": {"system": "Calcium", "assay": "Serum and urine calcium levels in vivo", "details": "Cf1 male mice, 8 mg/kg/day I.P. 14 days, N=6"}, "[18]": {"system": "Phosphorus", "assay": "Serum and urine inorganic phosphorus levels in vivo", "details": "Cf1 male mice, 8 mg/kg/day I.P. 14 days, N=6"}, "[19]": {"target": "T3, 5'-Lipoxygenase (Homo sapiens, UniProt P09917)", "T3 construct": "human leukocyte tissue culture cells; endogenous in cells; host or cells: Human peripheral leukocytes, RPMI-1788", "T3 sequence (P09917 1-674)": "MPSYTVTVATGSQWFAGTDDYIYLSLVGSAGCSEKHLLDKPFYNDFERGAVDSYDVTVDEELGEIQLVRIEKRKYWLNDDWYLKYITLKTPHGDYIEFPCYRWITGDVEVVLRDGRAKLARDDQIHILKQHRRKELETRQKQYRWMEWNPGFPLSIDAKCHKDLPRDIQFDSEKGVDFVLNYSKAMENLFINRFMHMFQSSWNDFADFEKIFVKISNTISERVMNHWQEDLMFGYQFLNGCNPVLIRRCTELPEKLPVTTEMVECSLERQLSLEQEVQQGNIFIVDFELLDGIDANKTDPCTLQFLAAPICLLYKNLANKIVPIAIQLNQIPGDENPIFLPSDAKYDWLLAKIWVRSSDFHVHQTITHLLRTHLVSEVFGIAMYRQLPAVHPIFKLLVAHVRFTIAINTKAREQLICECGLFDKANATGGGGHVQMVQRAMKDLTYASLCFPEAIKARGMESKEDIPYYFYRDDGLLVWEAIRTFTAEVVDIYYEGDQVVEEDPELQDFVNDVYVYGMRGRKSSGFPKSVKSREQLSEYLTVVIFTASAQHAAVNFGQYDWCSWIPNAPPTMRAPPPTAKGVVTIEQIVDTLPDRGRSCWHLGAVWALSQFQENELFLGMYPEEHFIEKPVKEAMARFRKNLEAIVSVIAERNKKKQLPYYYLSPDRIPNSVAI", "assay": "Human leukocyte 5'-lipoxygenase", "format": "cell-based"}, "[20]": {"system": "Cathepsin", "assay": "Human leukocyte cathepsin", "format": "cell-based", "details": "Table XIX; read-out: Human Leukocyte IC50 (head gives no enzyme; beside Cathepsin D)", "text": "5. Human peripheral leukocytes, RPMI-1788\nas §4"}, "[21]": {"details": "read-out: Mouse Hepatic Cathepsin D IC50, Table XIX"}}, "note": "Read-outs that look alike come from different tables or passages of the source."}
{"smiles": "C[N+](C)(C)[BH2-]C(=O)[O-].C[N+](C)(C)[BH2-]C(=O)[O-].C[N+](C)(C)[BH2-]C(=O)[O-].C[N+](C)(C)[BH2-]C(=O)[O-].C[N+](C)(C)[BH2-]C(=O)[O-].C[N+](C)(C)[BH2-]C(=O)[O-].O.O.O.[Cl-].[Fe+3].[Fe+3].[Fe+3].[O-2]", "note": "[Compound 25]", "values": [{"measurement": "IC50", "setting": "[1]", "result": 2.75, "unit": "µM"}, {"measurement": "IC50", "setting": "[2]", "result": 2.08, "unit": "µM"}, {"measurement": "IC50", "setting": "[3]; Table XV, mouse hepatic, 60 min incubation, read-out: Cathepsin D IC50", "result": 8.17, "unit": "µM"}, {"measurement": "Tail Flick Mice", "setting": "[4]", "result": 599}, {"measurement": "IC50", "setting": "[5]", "result": 2.33, "unit": "µM"}, {"measurement": "IC50", "setting": "[6]", "result": 1.81, "unit": "µM"}, {"measurement": "Anti-Inflammation Cf1 Mice", "setting": "[7]", "result": 74.2, "unit": "%"}, {"measurement": "IC50", "setting": "[8]", "result": 4.11, "unit": "µM"}, {"measurement": "IC50", "setting": "[9]", "result": 4.17, "unit": "µM"}, {"measurement": "Writhing Reflex Mice", "setting": "[10]", "result": 36.4, "unit": "%"}, {"measurement": "IC50", "setting": "[11]", "result": 2.44, "unit": "µM"}, {"measurement": "IC50", "setting": "[12]", "result": 9.91, "unit": "µM"}, {"measurement": "IC50", "setting": "[13]", "result": 4.14, "unit": "µM"}, {"measurement": "IC50", "setting": "[14]", "result": 475, "unit": "µM"}, {"measurement": "IC50", "setting": "[15]", "result": 3.39, "unit": "µM"}]}
{"smiles": "CC[NH2+][BH2-]C(=O)O", "note": "[CH3 CH2 NH2 BH2 COOH]", "values": [{"measurement": "Hydroxyproline serum", "setting": "[16]", "result": 89.1, "unit": "% Control"}, {"measurement": "Hydroxyproline urine", "setting": "[16]", "result": 69.2, "unit": "% Control"}, {"measurement": "Calcium serum", "setting": "[17]", "result": 121.0, "unit": "% Control"}, {"measurement": "Calcium urine", "setting": "[17]", "result": 61.2, "unit": "% Control"}, {"measurement": "Phosphorus serum", "setting": "[18]", "result": 64.3, "unit": "% Control"}, {"measurement": "Phosphorus urine", "setting": "[18]", "result": 78.0, "unit": "% Control"}]}
{"smiles": "CC(C)[Si](OC[C@H]1O[C@@H](n2ccc(N)nc2=O)C[C@@H]1O[Si](C(C)C)(C(C)C)C(C)C)(C(C)C)C(C)C", "note": "[Compound 38]", "values": [{"measurement": "IC50", "setting": "[19]", "result": 7.72, "unit": "µM"}, {"measurement": "IC50", "setting": "[3]; [21]", "result": 59.7, "unit": "µM"}, {"measurement": "IC50", "setting": "[20]", "result": 13.9, "unit": "µM"}]}
{"smiles": "CC(C)[Si](OC[C@H]1O[C@@H](n2cnc3c(N)ncnc32)C[C@@H]1O[Si](C(C)C)(C(C)C)C(C)C)(C(C)C)C(C)C", "note": "[Compound 35]", "values": [{"measurement": "IC50", "setting": "[19]", "result": 10.1, "unit": "µM"}, {"measurement": "IC50", "setting": "[3]; [21]", "result": 58.1, "unit": "µM"}, {"measurement": "IC50", "setting": "[20]", "result": 33.4, "unit": "µM"}]}
{"smiles": "N#C[BH2-][n+]1c(N)ccn([C@H]2C[C@H](O)[C@@H](CO)O2)c1=O", "note": "[Compound 39, 2'-Deoxycytidine-N3-cyanoborane]", "values": [{"measurement": "IC50", "setting": "[19]; Table XIX, read-out: Leukocyte 5' lipoxygenase IC50", "result": 12.8, "unit": "µM"}, {"measurement": "IC50", "setting": "[3]; Table XIX, read-out: Mouse Hepatic Cathepsin D IC50", "result": 26, "unit": "µM"}, {"measurement": "IC50", "setting": "[20]", "result": 8.72, "unit": "µM"}]}
{"smiles": "CC(C)[Si](OC[C@H]1O[C@@H](n2cnc3c(=O)[nH]cnc32)C[C@@H]1O[Si](C(C)C)(C(C)C)C(C)C)(C(C)C)C(C)C", "note": "[Compound 29]", "values": [{"measurement": "IC50", "setting": "[19]", "result": 8.85, "unit": "µM"}, {"measurement": "IC50", "setting": "[3]; [21]", "result": 79.6, "unit": "µM"}, {"measurement": "IC50", "setting": "[20]", "result": 31.8, "unit": "µM"}]}
